ChEMBL document CHEMBL1201862, “PubChem BioAssay data set” (2004)
Calls of active or inactive are those of the source.

How the values were obtained:
HeLa = assay: viability loss in HeLa cells – cell-based, 24 h, cherry-picked samples, cytotoxicity control, dose response (AID 504726); format: functional; conditions: Homo sapiens;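 note: potency for cytotoxicity as loss of luminescence signal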
Streptococcus [1] = assay: GAS UMAA2166 growth inhibition – luminescence, BacTiterGlo, counter-screen for streptokinase expression inhibitor project, dose response (AID 1915); format: functional, organism-based;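 note: potency for reduction of bacterial viability or growth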
Streptococcus [2] = assay: Luminescence Microorganism-Based Dose Response Follow up to Identify Compounds Cytotoxic to Streptococcus. [Related pubchem assays: 1677 (Project Summary), 1915, 1914, 1902 (Retest at Dose), 1900 (Counter Screen), 1662 (Primary HTS)]; format: functional, organism-based
Streptokinase A = biological target: T1, Streptokinase A (Streptococcus pyogenes serotype M1, UniProt P10520); assay: viability-normalized secreted streptokinase activity reduction – plasminogen activation absorbance, OD405, dose response (AID 1914); format: functional, Streptococcus pyogenes M1 GAS;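 note: secreted streptokinase activity via plasminogen activation per viability signal from cell pellet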
T1 sequence (P10520 whole entry): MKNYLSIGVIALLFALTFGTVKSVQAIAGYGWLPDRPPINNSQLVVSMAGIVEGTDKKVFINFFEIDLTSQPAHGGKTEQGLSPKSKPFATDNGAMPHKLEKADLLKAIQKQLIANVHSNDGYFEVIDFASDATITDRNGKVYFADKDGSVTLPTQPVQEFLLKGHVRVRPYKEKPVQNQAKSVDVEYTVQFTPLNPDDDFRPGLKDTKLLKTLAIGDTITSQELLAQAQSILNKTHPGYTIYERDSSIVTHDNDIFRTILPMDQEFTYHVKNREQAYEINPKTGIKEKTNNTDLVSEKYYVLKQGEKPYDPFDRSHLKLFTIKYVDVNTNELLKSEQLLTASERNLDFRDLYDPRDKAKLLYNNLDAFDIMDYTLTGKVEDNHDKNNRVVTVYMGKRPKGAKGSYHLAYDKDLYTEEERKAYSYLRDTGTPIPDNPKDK

[3] = tested on: Streptococcus sp. 'group A'; assay: Streptococcus pyogenes SK(-)GAS viability under kanamycin – luminescence, BacTiterGlo, confirmation, counter-screen for streptokinase expression inhibitor project, dose response (AID 1900); format: functional, organism-based
Staphylococcus aureus = assay: Inhibitors of Bacterial Quorum Sensing Structure Activity Relationship (SAR) Analysis: Dose Response Assay. [Related pubchem assays: 700, 527 ]; format: functional, organism-based
[4] = biological target: Lysosomal acid glucosylceramidase (Homo sapiens, UniProt P04062); assay: Dose response cell-based high throughput screening assay to identify enhancers of beta-glucosidase activity. [Related pubchem assays: 784 ]; format: functional
[5] = biological target: T2, Tyrosine-protein phosphatase non-receptor type 7 (Homo sapiens, UniProt P35236); assay: Dose Response confirmation of compounds that inhibit HePTP. [Related pubchem assays (depositor defined):AID1059, AID1661, AID2085]; format: functional
T2 sequence (P35236 whole entry): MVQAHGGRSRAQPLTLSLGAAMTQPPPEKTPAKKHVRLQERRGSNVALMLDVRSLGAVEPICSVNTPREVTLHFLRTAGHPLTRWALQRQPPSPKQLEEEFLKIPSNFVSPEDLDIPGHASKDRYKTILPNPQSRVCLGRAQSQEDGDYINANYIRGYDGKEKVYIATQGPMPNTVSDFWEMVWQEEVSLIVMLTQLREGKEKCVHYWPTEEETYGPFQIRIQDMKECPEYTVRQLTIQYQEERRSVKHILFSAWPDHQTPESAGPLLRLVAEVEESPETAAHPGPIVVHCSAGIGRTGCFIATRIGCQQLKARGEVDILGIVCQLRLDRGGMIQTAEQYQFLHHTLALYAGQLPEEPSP

[6] = biological target: Dual specificity protein phosphatase 3 (Homo sapiens, UniProt P51452); assay: Dose Response Confirmation of compounds that inhibit VHR1 in Fluorescent Assay. [Related pubchem assays (depositor defined):AID1661, AID1878]; format: functional
Bcl-2-like protein 10 = Bcl-2-like protein 10 (Homo sapiens, UniProt Q9HD36); assay: Bcl-B/TR3 peptide binding disruption – biochemical, fluorescence polarization, FITC-TR3 peptide, selectivity assay for Bfl-1 inhibitor project, primary screen (AID 748);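 note: fluorescence polarization from a fluorescein-labelled TR3 peptide binding purified Bcl-B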
[7] = biological target: T3, Alkaline phosphatase, tissue-nonspecific isozyme (Homo sapiens, UniProt P05186)
T3 sequence (P05186 whole entry): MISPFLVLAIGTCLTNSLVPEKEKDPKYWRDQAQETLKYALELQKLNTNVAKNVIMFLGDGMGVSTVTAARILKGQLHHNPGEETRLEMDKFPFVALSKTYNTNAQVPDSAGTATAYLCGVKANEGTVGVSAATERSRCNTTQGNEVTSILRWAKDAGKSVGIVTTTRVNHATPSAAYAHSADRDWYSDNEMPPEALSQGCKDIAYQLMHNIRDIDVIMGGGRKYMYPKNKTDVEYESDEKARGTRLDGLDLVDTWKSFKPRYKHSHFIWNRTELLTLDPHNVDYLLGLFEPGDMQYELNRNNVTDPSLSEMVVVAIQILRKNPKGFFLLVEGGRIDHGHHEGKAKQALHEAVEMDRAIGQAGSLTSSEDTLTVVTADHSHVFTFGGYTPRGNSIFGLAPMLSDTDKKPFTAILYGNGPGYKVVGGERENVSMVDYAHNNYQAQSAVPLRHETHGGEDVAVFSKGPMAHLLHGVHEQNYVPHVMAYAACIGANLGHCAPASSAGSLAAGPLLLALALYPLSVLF

Cytochrome P450 2C9 = Cytochrome P450 2C9 (Homo sapiens, UniProt P11712); conditions: Potency
Chain of Cytochrome P450 2C9 (P11712 whole entry): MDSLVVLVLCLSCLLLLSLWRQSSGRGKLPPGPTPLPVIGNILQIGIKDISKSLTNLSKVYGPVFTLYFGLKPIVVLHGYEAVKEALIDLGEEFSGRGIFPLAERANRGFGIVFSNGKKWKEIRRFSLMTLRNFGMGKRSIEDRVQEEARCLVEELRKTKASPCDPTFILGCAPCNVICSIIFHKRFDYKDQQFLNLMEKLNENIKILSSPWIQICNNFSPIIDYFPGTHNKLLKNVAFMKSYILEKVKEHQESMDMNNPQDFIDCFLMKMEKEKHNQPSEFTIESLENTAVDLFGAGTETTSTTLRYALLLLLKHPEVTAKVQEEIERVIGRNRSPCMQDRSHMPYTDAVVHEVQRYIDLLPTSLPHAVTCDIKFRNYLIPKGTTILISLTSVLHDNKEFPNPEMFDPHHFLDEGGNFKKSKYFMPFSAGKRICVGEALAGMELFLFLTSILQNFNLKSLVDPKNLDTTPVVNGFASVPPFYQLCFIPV

Chain of Dual specificity protein phosphatase 3 (P51452 whole entry): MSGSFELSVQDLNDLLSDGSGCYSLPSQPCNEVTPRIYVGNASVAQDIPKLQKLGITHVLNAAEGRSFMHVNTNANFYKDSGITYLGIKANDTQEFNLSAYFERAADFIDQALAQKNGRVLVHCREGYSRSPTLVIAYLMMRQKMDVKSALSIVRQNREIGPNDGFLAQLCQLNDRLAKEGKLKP
Chain of Bcl-2-like protein 10 (Q9HD36 whole entry): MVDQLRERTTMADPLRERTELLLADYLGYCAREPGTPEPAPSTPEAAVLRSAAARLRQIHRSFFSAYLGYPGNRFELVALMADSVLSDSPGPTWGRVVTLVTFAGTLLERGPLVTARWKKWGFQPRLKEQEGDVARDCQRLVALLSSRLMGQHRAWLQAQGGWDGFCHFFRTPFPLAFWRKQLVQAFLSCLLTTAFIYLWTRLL
Chain of Lysosomal acid glucosylceramidase (P04062 whole entry): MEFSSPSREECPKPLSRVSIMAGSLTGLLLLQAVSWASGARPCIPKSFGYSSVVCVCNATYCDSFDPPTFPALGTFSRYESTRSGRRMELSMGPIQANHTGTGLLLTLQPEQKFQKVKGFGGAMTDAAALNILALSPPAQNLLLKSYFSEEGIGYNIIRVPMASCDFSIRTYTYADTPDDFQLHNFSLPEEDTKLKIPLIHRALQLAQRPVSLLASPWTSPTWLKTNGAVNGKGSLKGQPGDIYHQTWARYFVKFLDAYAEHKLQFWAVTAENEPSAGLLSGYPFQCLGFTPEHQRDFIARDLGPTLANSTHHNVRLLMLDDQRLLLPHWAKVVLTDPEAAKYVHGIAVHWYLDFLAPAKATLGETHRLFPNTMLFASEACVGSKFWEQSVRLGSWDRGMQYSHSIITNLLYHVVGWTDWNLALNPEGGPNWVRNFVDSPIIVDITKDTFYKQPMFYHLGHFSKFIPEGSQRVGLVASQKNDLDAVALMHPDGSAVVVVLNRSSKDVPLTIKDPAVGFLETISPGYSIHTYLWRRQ

Cc1ccc(N(C)C(=O)C2CCCN2S(=O)(=O)c2ccc3c(c2)n(C)c(=O)c(=O)n3C)cc1 (configuration not stated)
AC50 (HeLa): 267 µM (active)

FC(F)(F)c1cccc(-c2cc3ccccc3nc2N2CCCC2)c1
EC50 (Streptococcus [1]): > 150 µM (not active) | EC50 (Streptococcus [2]): > 500 µM (not active) | EC50 (Streptokinase A): 9.12 µM (active) | EC50 [3]: 6.96 µM (active)

O=C(NCC(c1cccnc1)N1CCN(c2ccccc2)CC1)c1cccs1 (configuration not stated)
IC50 (Staphylococcus aureus): 1.05 µM (active)

COc1cccc(-c2cc(C(F)(F)F)nc(NCc3ccco3)n2)c1
EC50 [4]: > 50 µM (not active)

Cc1ccc2nc(-c3ccncc3)cc(C(=O)Nc3ccc(OC(F)F)cc3)c2c1
IC50 [5]: 4.12 µM (active) | IC50 [6]: 5.69 µM (active)

c1cc2c3c(cccc3c1)NC1(CCCCC1)N2
IC50 (Bcl-2-like protein 10): 60.5 µM (inactive)

CCC(C)C(NC(=O)c1ccccc1NC(=O)c1ccco1)C(=O)NC1CCCCC1 (configuration not stated)
EC50 [7]: > 100 µM (not active)

CC(C)C[C@@H](CC(=O)N[C@@H](CCCN)CC(=O)N[C@@H]1CCCC[C@H]1C(=O)N[C@H](CC(=O)N[C@@H](CCC(=O)O)CC(=O)O)CC(C)C)NC(=O)[C@@H]1CNCC[C@H]1N
AC50 (Cytochrome P450 2C9): 39.8 µM (inconclusive)
